Assay results from PMC11438743, “High-dose colistin pharmacokinetics in critically ill patients receiving continuous renal replacement therapy” (Annals of Intensive Care, 2024).
Read-outs that look alike come from different tables or passages of the source.

Assays:
[1] = Colistin plasma pharmacokinetics at steady state in critically ill patients undergoing CRRT (CVVHDF); assay type: in vivo, human; settings: median [IQR]
Procedure: According to current guidelines, CMS high dosage (HD) was administered intravenously (IV) at loading dose (LD) of 9 MIU […] over 30-min, followed by 6.75 MIU over 30-min q12. On day 4, at steady state, pharmacokinetic analyses of the study group were performed. CRRT was delivered as continuous veno-venous hemodiafiltration (CVVHDF) with Prismaflex ST150 (Gambro AB, Lund, Sweden) using the AN69 ST membrane (acrylonitrile-sodium-methyl sulfonate surface treated; surface area, 1.5m2) and regional citrate anticoagulation. Dose intensity was prescribed according to current guidelines, and with a ratio of dialysate to replacement fluid of 1:1. The CRRT circuit and membrane were changed every 72 h, as standard operating procedure in our center.
Although colistin concentration-time profiles are stable just on day 3, blood samples were collected after the seventh dose (on day 4 of treatment) at T0 (immediately before the initiation of CMS infusion) and 1 h, 2 h, 4 h, 6 h, 8 h, 10 h and 12 h from the start of CMS infusion. First order kinetic determined pharmacokinetic parameters; maximum and minimum concentrations (Cmax, Cmin) were directly obtained from observed peak and trough concentrations. The 0–12 h area under the time–concentration curve (AUC0–12 ) was determined by the linear trapezoidal rule. Colistin AUC0–24 was calculated as AUC0–12 × 2. The average steady-state plasma concentration (Css, avg) was obtained from the ratio of colistin AUC 0–24 above T (i.e. the dosage interval). In all patients, distribution volume (Vd), drug clearance (CL), and elimination half-life (t1/2 ) were calculated after a single 6.75 MIU intravenous dose at steady state. According to current guidelines, the recommended PK/PD therapeutic target has been considered the area under the plasma concentration- time curve across 24 h at steady state above MIC (fAUCss 0−24 hr) of ~ […], that equates to a target Css, avgof ~ 2 mg/L of the total drug against susceptible strains (MIC ≤ 2 mcg/mL). […] Colistin and CMS concentration were measured using and modifying the Gobin assay.

[2] = tested on: Acinetobacter spp.; test: Colistin MIC of BAL isolates (Micronaut AST BMD, VITEK 2 AST-N397, EUCAST v11.0); assay type: cell-based; settings: BAL Acinetobacter spp. isolates of 20 patients; median [interquartile range]
Procedure: Bacterial isolates were identified by using matrix-assisted laser desorption ionization-time of flight mass spectrometry (MALDI-TOF MS). MICs were determined by a Micronaut AST system-based BMD, VITEK 2 AST-N397 card, according to the manufacturer’s instructions. EUCAST (version 11.0, 2021) clinical breakpoints were used to interpret MICs. In pneumonia episodes, microbiological evidence of bacterial infection was achieved by processing respiratory samples both for conventional and fast-microbiology panel testing. […] Semiquantitative culture results were obtained using calibrated loops to inoculate and streak samples on both selective/differential.

[3] = cited from earlier work
Procedure: Several variables may influence colistin plasma concentration as demographic (e.g. body mass), clinical (e.g. kidney function) and therapeutic (e.g. RRT modality, membrane, mode and dose) variables. In order to account for CRRT removal of colistin, the 2019 international guidelines for the optimal use of polymyxins recommend administering a daily dose of 440 colistin base activity (CBA), corresponding to ≈ 13,3 MIU or ≈ 1173 mg of CMS in patients who are exposed to this extracorporeal organ support. […] The authors, documenting a 62% ClCVVHDF, formulated a pharmacokinetic model where a LD of 12 MIU followed by a maintenance dosage of 6.75–7.5 MIU q12 would be needed to achieve a target Css, avg of 2–3 mcg/mL [31]. […] Further, in the latest and largest investigation on this topic, ten critically ill patients requiring CRRT and receiving CMS 3 MIU q8 were prospectively studied.

[4] = plasmatic absorption after aerosolization of either 3 MIU and 5 MIU CMS; cited from earlier work
Description: In our study, all patients underwent CVVHDF with a similar daily dose and since this technique uses diffusion across a concentration gradient (e.g. hemodialysis) in addition to hemofiltration across a pressure gradient, the equivalences of the two modes with respect to CMS/colistin clearance are unknown. Additionally none of our patients had residual renal function and almost all were also receiving high dose nebulized CMS (5 MIU q8), delivered through vibrating mesh nebulizers, potentially contributing to the higher than expected steady-state colistin levels. In our study we cannot asc ...

[5] = in vivo, iv
Procedure: Clinical and demographic data were recorded upon enrolment. […] Renal recovery was defined as a reduction in peak AKI-KDIGO stage [21] and was evaluated in patients without chronic kidney disease.

[6] = tested on: CR-Acinetobacter baumannii ventilator associated pneumonia (VAP); test: Clinical outcome of patients treated with high-dose intravenous colistimethate; assay type: in vivo, human; settings: 20 patients, IV CMS 9 MIU LD then 6.75 MIU q12 in combination therapy, no control group
[7] = colistin, 20 patients on CVVHDF (AN69 ST membrane), steady state
[8] = eight critically ill patients receiving CRRT, CMS 4.5 MIU q12
[9] = five patients on CRRT, CMS until 2 MIU q8
[10] = ten critically ill patients requiring CRRT, CMS 3 MIU q8

For CC[C@H](C)CCCCC(=O)N[C@@H](CCN)C(=O)N[C@H](C(=O)N[C@@H](CCN)C(=O)N[C@H]1CCNC(=O)[C@H]([C@@H](C)O)NC(=O)[C@H](CCN)NC(=O)[C@H](CCN)NC(=O)[C@H](CC(C)C)NC(=O)[C@@H](CC(C)C)NC(=O)[C@H](CCN)NC1=O)[C@@H](C)O (mixture of isomers) [Colistin, Colistin (polymixin E)], the “%E (% filter extraction)” value [1, 7] was 17.65 [14.98–21.67] %, the CLCRRT [1, 7] was 1.21 [0.88–1.35] L/h and the Vd ([1]; human, plasma, colistin, 20 patients on CVVHDF, after a single 6.75 MIU IV CMS dose at steady state) was 126 L. The half-life ([1]; human, plasma, colistin, 20 patients on CVVHDF, after a single 6.75 MIU IV CMS dose at steady state, one-compartment, first order) was 20.9 h, the clearance ([1]; human, plasma, colistin, 20 patients on CVVHDF, after the seventh 6.75 MIU IV CMS dose at steady state, read-out: CLTOT (converted)) was 34.7 mL/min and the Cmax ([1]; human, plasma colistin, 20 critically ill anuric patients on CVVHDF (AN69 ST, 32.5 mL/kg/h), IV CMS 9 MIU LD then 6.75 MIU q12, after seventh dose (day 4, steady state), observed peak, modified Gobin assay) was 16600 ng/mL. For the same compound, the AUC(0-t) ([1]; human, plasma colistin, 20 patients on CVVHDF, IV CMS 6.75 MIU q12 after 9 MIU LD, day 4, AUC0-12 (linear trapezoidal) x 2, read-out: AUC0-24) was 194 µg·h/mL, the level at 96 h ([1]; human, plasma colistin, 20 patients on CVVHDF, IV CMS 9 MIU LD then 6.75 MIU q12, after seventh dose (day 4), observed trough, read-out: Cmin) was 3930 ng/mL and the “Css, avg (average steady-state concentration)” value ([1]; plasma colistin, 20 patients on CVVHDF, IV CMS 9 MIU LD then 6.75 MIU q12, day 4, AUC0-24 over dosage interval) was 8.07 [7.1–8.69] mcg/mL. For the same compound, the “Css, avg in patients who recovered renal function” value ([1]; plasma colistin, subgroup with renal recovery, p = 0.026 vs no renal recovery) was 7.48 [6.35, 8.05] mcg/mL, the “Css, avg in patients that had no renal recovery” value ([1]; plasma colistin, subgroup without renal recovery, p = 0.026 vs renal recovery) was 8.31 [7.35, 9.13] mcg/mL and the fAUC0-24 ([1]; unbound colistin, unbound fraction derived from literature, 20 patients on CVVHDF, IV CMS 6.75 MIU q12, day 4) was 58.16 [51.18–62.6] mcg h/mL. The MIC [2] was 1[1-1.5] mcg/mL, the ClCVVHDF [3, 8] was 62% and the “median Cmax” value [3, 8] was 1720 ng/mL. For the same compound, the CLHDF [3, 9] was “above 4 L/h”, the “Css, avg” value [3, 9] was no more than 1 µg/mL and the membrane extraction ratio [3, 9] was 68%. The steady-state concentrations ([3]; high CMS daily administration schedules during CRRT, especially with residual renal function and prolonged course) was “above 10 mcg/mL”, the AUC0-24 [3, 10] was 569 [404–741] mcg h/mL and the “CRRT clearance as share of total clearance” value [3, 10] was 28%. The “Css, avg” value [3, 10] was 4.43 [3.01–7.24] mcg/mL, the effluent clearance share ([3]; three patients on CRRT) was “about 40%” and the “colistin concentrations after aerosolization” value [4] was less than 1 µg/mL.
In the case of colistimethate [CMS], the “CRRT clearance as share of total clearance” value ([3]; human, in vivo) is listed as 41%, the “median Cmax” value ([3]; human, in vivo) is listed as 12600 ng/mL and the “risk to overcome the safety limit of Css, avg ≥ 4 mcg/mL” value ([3]; human, in vivo) is listed as “less than 30%”. For the same compound, the “target attainment rate (Css, avg ≥ 2 mcg/mL)” value ([3]; human, in vivo) was 80%, the “Renal Recovery” value [5] was 6 (37.5) count (percentage) and the “Death in ICU” value ([6]; 18 with nebulized CMS) was 15 (75) count (percentage). The Treatment failure [6] was 14 (70) count (percentage).
